In PubChem BioAssay (NCI):
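Five compound concentrations were applied to cells in 96-well plates for 48 hours; endpoints were derived by simple linear interpolation of the resulting dose-response curve. TGI: total growth inhibition.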

Experiments:
Assay in all cases: NCI tumour cell line growth inhibition, 48 h
[1] = test system: A549 NSCLC
[2] = test system: COLO 205 colon
[3] = test system: NCI-H226 lung
[4] = test system: SK-MEL-2 melanoma
[5] = test system: HCC-2998 colon
[6] = test system: 786-0 renal
[7] = test system: CCRF-CEM leukemia
[8] = test system: M14 melanoma
[9] = test system: LOX IMVI melanoma
[10] = test system: SN12C renal
[11] = test system: CAKI-1 renal
[12] = test system: NCI-H460 lung
[13] = test system: ACHN renal
[14] = test system: HOP-92 NSCLC
[15] = test system: MDA-MB-231 breast
[16] = test system: HL-60(TB) leukemia
[17] = test system: IGROV1 ovarian
[18] = test system: NCI-H23 lung
[19] = test system: SNB-19 CNS
[20] = test system: DU-145 prostate
[21] = test system: T-47D breast
[22] = test system: MCF7 breast
[23] = test system: SNB-75 CNS
[24] = test system: SF-539 CNS
[25] = test system: TK-10 renal
[26] = test system: OVCAR-5 ovarian
[27] = test system: HS 578T breast
[28] = test system: HT29 colon
[29] = test system: PC-3 prostate
[30] = test system: RXF 393 renal
[31] = test system: A498 renal
[32] = test system: BT-549 breast
[33] = test system: NCI/ADR-RES ovarian
[34] = test system: EKVX NSCLC
[35] = test system: OVCAR-8 ovarian
[36] = test system: SR leukemia
[37] = test system: NCI-H522 lung
[38] = test system: U251 CNS
[39] = test system: UO-31 renal
[40] = test system: MDA-MB-435
[41] = test system: SK-MEL-28 melanoma
[42] = test system: MDA-N
[43] = test system: MOLT-4 leukemia
[44] = test system: UACC-62 melanoma
[45] = test system: MALME-3M melanoma
[46] = test system: UACC-257 melanoma
[47] = test system: SF-268 CNS
[48] = test system: HCT-116 colon
[49] = test system: K-562 leukemia
[50] = test system: KM12 colon
[51] = test system: SW-620 colon
[52] = test system: OVCAR-4 ovarian
[53] = test system: HCT-15 colon
[54] = test system: SK-MEL-5 melanoma
[55] = test system: RPMI-8226 leukemia
[56] = test system: M19-MEL melanoma
[57] = test system: HOP-18 NSCLC
[58] = test system: HOP-62 NSCLC
[59] = test system: OVCAR-3 ovarian
[60] = test system: KM20L2 colon
[61] = test system: DMS 273 small cell lung
[62] = test system: SNB-78 CNS
[63] = test system: LXFL 529 NSCLC

Cc1ccc2c(c1)C=CC(C#N)N2C(=O)Oc1ccccc1 (stereo not given)
TGI [1]: > 100 µM | TGI [2]: 70.1 µM | TGI [3]: 99.9 µM | TGI [4]: 61.9 µM | TGI [5]: 31.2 µM | TGI [6]: > 100 µM | TGI [7]: 40.1 µM | TGI [8]: > 100 µM | TGI [9]: 40 µM | TGI [10]: > 100 µM | TGI [11]: > 100 µM | TGI [12]: > 100 µM | TGI [13]: 83.3 µM | TGI [14]: 64.7 µM | TGI [15]: > 100 µM | TGI [16]: 50.5 µM | TGI [17]: > 100 µM | TGI [18]: 44.5 µM | TGI [19]: > 100 µM | TGI [20]: 42.7 µM | TGI [21]: 73.8 µM | TGI [22]: 40.2 µM | TGI [23]: > 100 µM | TGI [24]: > 100 µM | TGI [25]: 94.2 µM | TGI [26]: > 100 µM | TGI [27]: > 100 µM | TGI [28]: 35.3 µM | TGI [29]: 97.9 µM | TGI [30]: > 100 µM | TGI [31]: 55.4 µM | TGI [32]: 48.2 µM | TGI [33]: 50.6 µM | TGI [34]: 43 µM | TGI [35]: 31.1 µM | TGI [36]: 46.8 µM | TGI [37]: 41 µM | TGI [38]: 66.4 µM | TGI [39]: > 100 µM | TGI [40]: 29.7 µM | TGI [41]: > 100 µM | TGI [42]: > 100 µM | TGI [43]: 54.9 µM | TGI [44]: > 100 µM | TGI [45]: > 100 µM | TGI [46]: > 100 µM | TGI [47]: > 100 µM | TGI [48]: > 100 µM | TGI [49]: 64.4 µM | TGI [50]: 33.2 µM | TGI [51]: > 100 µM | TGI [52]: 70.7 µM | TGI [53]: 57.2 µM | TGI [54]: > 100 µM | TGI [55]: 52.6 µM

O=C(NNC(=O)c1nsc2ccccc12)c1ccc(Cl)cc1
TGI [56]: 39.1 µM | TGI [1]: 45.9 µM | TGI [2]: 66 µM | TGI [4]: 45.7 µM | TGI [5]: 31 µM | TGI [7]: 38.1 µM | TGI [8]: 36.9 µM | TGI [9]: 36.5 µM | TGI [10]: 33.7 µM | TGI [12]: > 100 µM | TGI [13]: > 100 µM | TGI [14]: 32.8 µM | TGI [16]: 49.8 µM | TGI [57]: 27.4 µM | TGI [17]: > 100 µM | TGI [18]: 59.9 µM | TGI [19]: 42.3 µM | TGI [23]: 15.6 µM | TGI [58]: 33.7 µM | TGI [24]: 41.9 µM | TGI [25]: 48.9 µM | TGI [26]: 46.4 µM | TGI [28]: 41.8 µM | TGI [30]: 30.3 µM | TGI [34]: 42.3 µM | TGI [35]: 72.8 µM | TGI [36]: 75.5 µM | TGI [59]: 36.6 µM | TGI [38]: 33.7 µM | TGI [39]: 55.4 µM | TGI [41]: 36.1 µM | TGI [60]: 53.8 µM | TGI [61]: 25.1 µM | TGI [62]: 61.7 µM | TGI [43]: 50.2 µM | TGI [63]: 39.8 µM | TGI [46]: 48.2 µM | TGI [47]: 41.3 µM | TGI [48]: 39.2 µM | TGI [49]: 35.1 µM | TGI [50]: 65.7 µM | TGI [51]: > 100 µM | TGI [53]: 36.4 µM | TGI [54]: 59.2 µM | TGI [55]: 50.2 µM
